Test results as given in PubChem BioAssay (NCI).
Values joined by “and” are separate entries in the source; they are usually repeats but may differ in a detail not shown here. Equal values may be shown once.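 Following 48 hours of exposure in 96-well plates, responses at five concentrations were used to interpolate endpoints linearly. GI50: concentration for 50% inhibition of growth. TGI marks complete inhibition of growth.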 *1 amine or outer side, *2 acyl side, *3 side chain or, on linkers, in order; H or OH if unused. Where a SMILES comes first, the peptide text is derived from it. Bridges are numbered along the chain shown (N, C = ends). [ ]: non-standard residue; d: D form. ξ: configuration not given here. X4 = CCC(C)C(N[*:1])C(O)CC(=O)O[C@H](C(=O)C(C)C(=O)[*:2])C(C)C; NMeY = CN[C@@H](Cc1ccc(O)cc1)C(=O)O; ξNMeL = CNC(CC(C)C)C(=O)O; ξT = CC(O)C(N)C(=O)O

Experiments:
Assay in all cases: growth of human tumour cells (NCI), 48 h
[1] = system: A498 renal
[2] = system: U251 CNS
[3] = system: MOLT-4 leukemia
[4] = system: A549 NSCLC
[5] = system: K-562 leukemia
[6] = system: TK-10 renal
[7] = system: NCI-H460 lung
[8] = system: NCI-H23 lung
[9] = system: EKVX NSCLC
[10] = system: HOP-62 NSCLC

| Compound | TGI [1] | TGI [2] [µM] | TGI [3] [µM] | TGI [4] | TGI [5] [µM] | TGI [6] | TGI [7] [µM] | TGI [8] [µM] | TGI [9] [µM] | TGI [10] [µM] | GI50 [9] [µM] | GI50 [1] [nM] | GI50 [2] [µM] | GI50 [3] [µM] | GI50 [4] [µM] | GI50 [5] [µM] | GI50 [6] [µM] | GI50 [7] [nM] | GI50 [8] [µM] | GI50 [10] [µM] |
| --- | --- | --- | --- | --- | --- | --- | --- | --- | --- | --- | --- | --- | --- | --- | --- | --- | --- | --- | --- | --- |
| CCCCCCCCCCCCCCCCCCOCC(O)COP(=O)(O)OCC1OC(n2cc(F)c(=O)[nH]c2=O)CC1O (stereo not drawn) | > 56 µM | 22.4 | 21.6 | 25.9 µM | 32.1 | 24.6 µM | 21.1 | 16.9 | > 74.2 | 4.88 |  |  |  |  |  |  |  |  |  |  |
| CC(C)n1c(=O)n(-c2ccccc2)n(C(C)(C)C)c1=O | > 100 µM | > 100 | > 100 | > 100 µM | > 100 | > 100 µM | > 100 | > 100 | > 100 | > 100 |  |  |  |  |  |  |  |  |  |  |
| COC(=O)C1(C(=O)OC)N=C(C)OC1C(C)C (stereo not drawn) | > 100 µM | > 100 | > 100 | > 100 µM | > 100 | > 100 µM | > 100 | > 100 | > 100 | > 100 |  |  |  |  |  |  |  |  |  |  |
| CCC(C)C1NC(=O)C(NC(=O)C(CC(C)C)N(C)C(=O)[C@@H]2CCCN2)C(C)OC(=O)[C@H](Cc2ccc(OC)cc2)N(C)C(=O)[C@@H]2CCCN2C(=O)[C@H](CC(C)C)NC(=O)C(C)C(=O)[C@H](C(C)C)OC(=O)CC1O (stereo partly drawn) (H-P[ξNMeL][ξT][X4]LP[NMeY](Me); ester 3-C) | 0.0372 µM and 0.15 µM | 0.0114 | 0.00507 | 0.0246 µM and 0.0289 µM |  | 0.027 µM and 0.141 µM |  | 0.00218 | 0.0474 | 0.00782 |  |  |  |  |  |  |  |  |  |  |
| O=C(Nc1cccc(-c2cn3ccccc3n2)c1)c1ccncc1 | > 100 µM | > 100 | 52.6 | > 100 µM | 61 | > 100 µM | 39 | 65 | > 100 | > 100 |  |  |  |  |  |  |  |  |  |  |
| COC(OC)C(O)C1OC=CC1n1cnc2c(N)ncnc21 (stereo not drawn) | > 100 µM | > 100 | > 100 |  | > 100 | > 100 µM | > 100 | > 100 | > 100 | > 100 |  |  |  |  |  |  |  |  |  |  |
| N#CC1=CNc2sccc2S1(=O)=O | > 100 µM | > 100 | > 100 | > 100 µM |  | > 100 µM | > 100 | > 100 | > 100 | > 100 |  |  |  |  |  |  |  |  |  |  |
| O=C(c1ccco1)N(C(=S)OCc1ccccn1)c1ccccc1 | > 100 µM | > 100 | > 100 |  | > 100 | > 100 µM |  | > 100 | > 100 | > 100 |  |  |  |  |  |  |  |  |  |  |
| CC(C)(C)N1Cc2ccccc2/C(=C/Sc2ccccc2)C1=O | 35.4 µM | 27.3 | 48.4 | 37.6 µM | > 100 | 34.8 µM | 30 | 24.2 | 34.2 | 33.8 |  |  |  |  |  |  |  |  |  |  |
| COC1/C=C/C(C)C(C(C)C(OC)C(C)CCC(=O)C(C)C(CCC(=O)O)OC)OC(=O)/C=C/C=C(\C)CC(OC)CC2=CC(=O)O[C@@H](C(C)C(OC)CC(OC)/C=C/C(C)C(OC)C1)[C@H]2O (stereo partly drawn) | 0.343 µM | 1.39 | > 3.93 | > 5 µM | > 5 | > 5 µM | > 5 | > 5 | > 5 | > 5 |  |  |  |  |  |  |  |  |  |  |
| N#CCc1nc(C#N)c(N)o1 | > 100 µM | > 100 | > 100 | > 100 µM |  | > 100 µM | > 100 | > 100 | > 100 | > 100 | > 100 |  |  |  |  |  |  |  |  |  |
| COc1cccc(-c2nc3sccn3c2-c2ccnc(NCCNC(=O)Nc3cccc(C(F)(F)F)c3)n2)c1 | 17.5 µM | 19.8 | 9.94 | 17.1 µM | > 100 | 18.8 µM | 14.4 | 76.9 | 59.6 | 42.4 | 3.55 | 2440 | 3.95 | 3.27 | 3.82 | 3.48 | 3.6 | 2940 | 3.42 | 6.71 |
| CSCCC(NC(=O)OC(C)(C)C)C(=O)NCCNc1ccc(NCCNC(=O)C(CCSC)NC(=O)OC(C)(C)C)c2c1C(=O)c1ccccc1C2=O (stereo not drawn) | 21.1 µM | 10.6 | 11.5 | 7.93 µM | > 32.7 | 15.1 µM | 23.1 | 15.9 | > 27.7 | 8.2 |  |  |  |  |  |  |  |  |  |  |
| COc1ccc2c(c1)CCc1c-2n(CCN(C)C)c2ccc(OC)cc12 | 41.1 µM | 78.7 | 59.1 | > 100 µM | > 100 | 80.3 µM | > 100 | 50.2 | > 100 | 43.1 |  |  |  |  |  |  |  |  |  |  |
| Cc1ccc(S(=O)(=O)N2CCN(CCN(C)CCN3CCN(S(=O)(=O)c4ccc(C)cc4)CC3)CC2)cc1 | 31.8 µM | 31.6 | 36 | 76.1 µM | 35.2 | 30.2 µM | 32.2 | 44.8 | 55.2 | 33 |  |  |  |  |  |  |  |  |  |  |
| Cc1cc(S(=O)(=O)Nc2nc(N)nc(N3N=CCC3C)n2)c(S)cc1Cl (stereo not drawn) | > 10 µM | > 10 | > 10 | > 10 µM | > 10 | > 10 µM | > 10 | > 10 | > 10 | > 10 |  |  |  |  |  |  |  |  |  |  |
| Cc1cc(S(=O)(=O)Nc2nnc3cc(C(F)(F)F)cc(C)n23)c(S)cc1Cl | 37.2 µM | > 81.5 | > 100 | 52.8 µM | > 100 | > 100 µM | 42.5 | > 100 | > 100 | > 100 |  |  |  |  |  |  |  |  |  |  |
| O=C(/C=C/c1ccc([N+](=O)[O-])cc1)c1nc2ccccc2[nH]1 | 3.99 µM | > 100 | 99.7 | > 100 µM | > 61.5 | > 37.8 µM | > 100 |  | > 100 | > 100 |  |  |  |  |  |  |  |  |  |  |
| CC#CC(O)(C(=O)OC1CCCN(C)C1)C1=CC=CCC1 (stereo not drawn) | > 100 µM | > 100 | > 100 | > 100 µM | > 100 | > 100 µM | > 100 | > 100 | > 100 | > 100 |  |  |  |  |  |  |  |  |  |  |
